≈ marks a conversion by molar mass, not a printed value. Calls of active or inactive are those of the source. No cut-off for these calls is given here.
Columns and labels:
[1] = Toxicity in fasted male Sprague-Dawley rat assessed as relative lung weight ratio at 331 mg/kg, IG measured for 14 days (reference value: 0.437 +/- 0.064); assay type: organism-based; conditions: in vivo, po, 336 h, time 14 day
Escherichia coli [2] = test: Bactericidal activity against Escherichia coli ATCC 25922 assessed as reduction in colony count at MIC incubated for 24 hrs by time kill assay relative to control; assay type: functional
[3] = Toxicity in fasted female Sprague-Dawley rat assessed as relative ovary weight ratio at 500 mg/kg, IG measured for 14 days (reference value: 0.061 +/- 0.010); assay type: organism-based; conditions: in vivo, po, 336 h, time 14 day
[4] = Toxicity in fasted female Sprague-Dawley rat assessed as relative ovary weight ratio at 148 mg/kg, IG measured for 14 days (reference value: 0.061 +/- 0.010); assay type: organism-based; conditions: in vivo, po, 336 h, time 14 day
[5] = Toxicity in fasted male Sprague-Dawley rat assessed as relative kidney weight ratio at 500 mg/kg, IG measured for 14 days (reference value: 0.820 +/- 0.072); assay type: organism-based; conditions: in vivo, po, 336 h, time 14 day
[6] = Toxicity in neutropenic Kunming mouse model infected with methicillin-resistant Staphylococcus aureus ATCC 33591 assessed as survival rate at 5 mg/kg, ip measured after 7 days relative to control; assay type: organism-based; conditions: in vivo, 168 h, time 7 day
[7] = Toxicity in fasted female Sprague-Dawley rat assessed as body weight at 148 mg/kg, IG measured on same day (reference value: 165.2 +/- 8.1 g); assay type: organism-based; conditions: in vivo, po
[8] = Tmax in fasted Sprague-Dawley rat at 1 mg/kg, iv by LC-MS/MS analysis; assay type: ADME, organism-based; conditions: in vivo
[9] = Toxicity in fasted female Sprague-Dawley rat assessed as relative liver weight ratio at 331 mg/kg, IG measured for 14 days (reference value: 3.199 +/- 0.062); assay type: organism-based; conditions: in vivo, po, 336 h, time 14 day
Escherichia coli [10] = test: Induction of cell damage in Escherichia coli ATCC 25922 assessed as fold increase in extracellular ATP concentration at MIC incubated for 30 mins by fluorescence based analysis relative to control; assay type: functional; conditions: 0.5 h
[11] = Toxicity in fasted Sprague-Dawley rat assessed as mortality rate at 224 mg/kg, IG measured for 14 days; assay type: organism-based; conditions: in vivo, po, time 14 day
Staphylococcus aureus [12] = test: Bactericidal activity against methicillin-resistant Staphylococcus aureus ATCC 33591 at MIC incubated for 24 hrs by time kill assay relative to control; assay type: functional
Staphylococcus aureus [13] = test: Bactericidal activity against methicillin-resistant Staphylococcus aureus ATCC 33591 at 2 to 8 times MIC incubated for 8 to 24 hrs by time kill assay relative to control; assay type: functional; conditions: time 8-24 hrs
[14] = Toxicity in fasted male Sprague-Dawley rat assessed as relative spleen weight ratio at 224 mg/kg, IG measured for 14 days (reference value: 0.246 +/- 0.037); assay type: organism-based; conditions: in vivo, po, 336 h, time 14 day
[15] = system: Mesomycoplasma hyopneumoniae; test: Anti-mycoplasma activity against Mycoplasma hyopneumoniae LH-NCTC10130 assessed as bacterial growth inhibition incubated for 7 days; assay type: functional; conditions: Mesomycoplasma hyopneumoniae, LH-NCTC10130, 168 h; time 7 day; read-out: MIC
[16] = Toxicity in fasted male Sprague-Dawley rat assessed as relative heart weight ratio at 500 mg/kg, IG measured for 14 days (reference value: 0.396 +/- 0.043); assay type: organism-based; conditions: in vivo, po, 336 h, time 14 day
[17] = Toxicity in fasted male Sprague-Dawley rat assessed as relative heart weight ratio at 331 mg/kg, IG measured for 14 days (reference value: 0.396 +/- 0.043); assay type: organism-based; conditions: in vivo, po, 336 h, time 14 day
[18] = Toxicity in fasted male Sprague-Dawley rat assessed as relative kidney weight ratio at 331 mg/kg, IG measured for 14 days (reference value: 0.820 +/- 0.072); assay type: organism-based; conditions: in vivo, po, 336 h, time 14 day
Staphylococcus aureus [19] = test: Disruption of cell membrane integrity in methicillin-resistant Staphylococcus aureus ATCC 33591 assessed as increase in red fluorescence at 1 to 4 times MIC incubated for 2 hrs by MycoLight green JJ98/PI staining based analysis; assay type: functional, organism-based
Escherichia coli [20] = test: Disruption of cell membrane integrity in Escherichia coli ATCC 25922 assessed as rough cell surface at MIC incubated for 4 hrs by FESEM analysis; assay type: functional, organism-based
Staphylococcus aureus [21] = test: Depolarization of cell membrane in methicillin-resistant Staphylococcus aureus ATCC 33591 by DiBAC4(3) probe based analysis; assay type: functional, organism-based
[22] = Toxicity in fasted female Sprague-Dawley rat assessed as relative ovary weight ratio at 100 mg/kg, IG measured for 14 days (reference value: 0.061 +/- 0.010); assay type: organism-based; conditions: in vivo, po, 336 h, time 14 day
[23] = Toxicity in fasted male Sprague-Dawley rat assessed as body weight at 100 mg/kg, IG measured on same day (reference value: 212.7 +/- 13.2 g); assay type: organism-based; conditions: in vivo, po
[24] = Toxicity in fasted female Sprague-Dawley rat assessed as relative lung weight ratio at 100 mg/kg, IG measured for 14 days (reference value: 0.534 +/- 0025); assay type: organism-based; conditions: in vivo, po, 336 h, time 14 day
Staphylococcus aureus [25] = test: Antibacterial activity against methicillin-resistant Staphylococcus aureus ATCC 33591 infected in neutropenic Kunming mouse model assessed as restoration of infection- induced change in cell morphology in liver at 20 mg/kg, ip measured after 7 days; assay type: functional, organism-based; conditions: time 7.0 day
[26] = Toxicity in fasted female Sprague-Dawley rat assessed as relative ovary weight ratio at 224 mg/kg, IG measured for 14 days (reference value: 0.061 +/- 0.010); assay type: organism-based; conditions: in vivo, po, 336 h, time 14 day
[27] = Toxicity in fasted female Sprague-Dawley rat assessed as relative lung weight ratio at 500 mg/kg, IG measured for 14 days (reference value: 0.534 +/- 0025); assay type: organism-based; conditions: in vivo, po, 336 h, time 14 day
[28] = Toxicity in fasted male Sprague-Dawley rat assessed as body weight at 148 mg/kg, IG measured on same day (reference value: 212.7 +/- 13.2 g); assay type: organism-based; conditions: in vivo, po
[29] = Toxicity in fasted female Sprague-Dawley rat assessed as relative spleen weight ratio at 100 mg/kg, IG measured for 14 days (reference value: 0.223 +/- 0.019); assay type: organism-based; conditions: in vivo, po, 336 h, time 14 day
[30] = Toxicity in fasted male Sprague-Dawley rat assessed as relative lung weight ratio at 148 mg/kg, IG measured for 14 days (reference value: 0.437 +/- 0.064); assay type: organism-based; conditions: in vivo, po, 336 h, time 14 day
Acinetobacter baumannii = test: Antibacterial activity against carbapenem-resistant Acinetobacter baumannii 882 clinical isolate assessed as bacterial growth inhibition incubated for 24 hrs by CLSI based broth microdilution method; assay type: functional
Escherichia coli [31] = test: Induction of cell damage in Escherichia coli ATCC 25922 assessed as fold increase in extracellular ATP concentration at 2 times MIC incubated for 30 mins by fluorescence based analysis relative to control; assay type: functional; conditions: 0.5 h
Escherichia coli [32] = test: Inhibition of biofilm formation of Escherichia coli ATCC 25922 at 8 times MIC incubated for 24 hrs by crystal violet staining based analysis relative to control; assay type: functional
[33] = Toxicity in fasted female Sprague-Dawley rat assessed as body weight at 100 mg/kg, IG measured on same day (reference value: 165.2 +/- 8.1 g); assay type: organism-based; conditions: in vivo, po
Escherichia coli [34] = test: Induction of cell damage in Escherichia coli ATCC 25922 assessed as decrease in intracellular ATP concentration at MIC incubated for 30 mins by fluorescence based analysis relative to control; assay type: functional; set-up: scale not given: the % may be the effect or the level left; conditions: 0.5 h
[35] = Toxicity in fasted female Sprague-Dawley rat assessed as animal growth rate at 331 mg/kg, IG measured for 14 days (reference value: 29.85 +/- 4.97 g); assay type: organism-based; conditions: in vivo, po, 336 h, time 14 day

SMILES: C=C[C@]1(C)C[C@@H](OC(=O)COC(=O)/C=C/c2ccc(N(C)C)cc2)[C@]2(C)[C@H](C)CC[C@]3(CCC(=O)[C@H]32)[C@@H](C)[C@@H]1O
- Ratio [1]: 0.397
- Activity (Escherichia coli [2]): 3.99 log10CFU/ml
- Ratio [3]: 0.071
- Ratio [4]: 0.066
- Ratio [5]: 0.759
- Survival [6]: 30%
- Activity [7]: 159.8 g
- Tmax [8]: 4.98 min
- Ratio [9]: 3.171
- fold change (FC) (Escherichia coli [10]): 6.12
- mortality at 336 h [11]: 0%
- Activity (Staphylococcus aureus [12]): 48.55%
- Activity (Staphylococcus aureus [13]): 100%
- Ratio [14]: 0.229
- MIC [15]: 0.002 µg/mL (≈ 0.00363 µM)
- Ratio [16]: 0.376
- Ratio [17]: 0.374
- Ratio [18]: 0.831
- Activity (Staphylococcus aureus [19]): Active
- Activity (Escherichia coli [20]): Active
- Activity (Staphylococcus aureus [21]): Dose-Dependent Effect
- Ratio [22]: 0.071
- Activity [23]: 215.3 g
- Ratio [24]: 0.522
- Activity (Staphylococcus aureus [25]): Active
- Ratio [26]: 0.073
- Ratio [27]: 0.503
- Activity [28]: 208.6 g
- Ratio [29]: 0.226
- Ratio [30]: 0.415
- MIC (Acinetobacter baumannii): 64 µg/mL (≈ 116 µM)
- fold change (FC) (Escherichia coli [31]): 5.35
- inhibition (INH) (Escherichia coli [32]): 97.56%
- Activity [33]: 163.6 g
- Activity (Escherichia coli [34]): 50.75%
- Activity [35]: 27.6%

From ChEMBL document CHEMBL5625206, “Design, synthesis, and evaluation of novel pleuromutilin aryl acrylate derivatives as promising broad-spectrum antibiotics especially for combatting multi-drug resistant gram-negative bacteria” (Eur J Med Chem, 2023)
